Measured values taken from publication PMC7017366, “Glucose Uptake Stimulatory and PTP1B Inhibitory Activities of Pimarane Diterpenes from Orthosiphon stamineus Benth” (Biomolecules, 2019).
“Also recorded” adds a separate entry of the source.

What was measured:
PTP1B = system: PTP1B; parameters: method as in PMID 23604820; conditions: very low IC50 values; cited from earlier work
[1] = molecular target: T1, Protein tyrosine phosphatase 1B (human recombinant) (Homo sapiens, UniProt P18031); experiment: Determination of the inhibition mode (Lineweaver–Burk and Dixon plots); type: biochemical; conditions: p-NPP substrate; for Ki: Dixon plot; for Inhibition Type: Lineweaver–Burk and Dixon plots
T1 construct: purchased Biomol International LP, Plymouth Meeting, PA, USA
T1 sequence (P18031 1-435): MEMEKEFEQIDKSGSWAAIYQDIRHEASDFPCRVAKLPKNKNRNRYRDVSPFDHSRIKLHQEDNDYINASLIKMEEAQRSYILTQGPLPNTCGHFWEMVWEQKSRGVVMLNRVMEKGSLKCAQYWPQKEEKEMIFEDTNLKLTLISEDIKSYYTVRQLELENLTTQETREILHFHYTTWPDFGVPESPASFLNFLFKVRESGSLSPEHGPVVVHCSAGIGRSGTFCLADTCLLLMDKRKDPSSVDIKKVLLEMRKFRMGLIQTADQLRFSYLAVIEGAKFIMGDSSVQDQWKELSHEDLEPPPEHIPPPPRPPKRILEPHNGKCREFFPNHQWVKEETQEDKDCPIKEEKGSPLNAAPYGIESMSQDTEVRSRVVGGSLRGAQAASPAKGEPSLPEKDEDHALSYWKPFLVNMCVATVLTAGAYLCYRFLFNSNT
Description: The Sigma plot program was used to analyze both the double reciprocal Lineweaver–Burk plot and the Dixon plot by plotting 1/v as a function of the inhibitor (I). […] Table 1 lists the Ki values for these active compounds.
Victor3 V 1420 Multilabel Plate Counter at an excitation and emission wavelength of 485 nm and 535 nm, […]
(§1) Protein tyrosine phosphatase 1B (human recombinant) was purchased from Biomol International LP, Plymouth Meeting, PA, USA, and the inhibitory activities of the tested samples were evaluated using the method as described in [31]. Briefly, 0.05−0.1 µg of PTP1B (BIOMOL International L.P., Plymouth Meeting, PA, USA) and 4 mM p-NPP in a buffer containing 1 mMdithiothreitol, 0.1 M NaCl, 1 mM EDTA, and 50 mM citrate (pH 6.0), with or without test compounds, were added as 100 µL of a final volume to each of the 96 wells. After the reaction mixture was incubated at 37 °C for 30 min, 10 M NaOH was added to quench the reaction. PTP1B enzyme activity was determined by the amount of produced p-nitrophenol at 405 nm. […]
contain the PTP1B enzyme.
Determination of the Inhibition Mode of Active Compounds
The Lineweaver–Burk plot and Dixon plot experiments were carried out in the presence and absence of the inhibitors with various concentrations of p-NPP as the substrate. The inhibition modes of the tested compounds were assessed on the basis of their inhibitory effects on the Km ([…]) and Vmax (maximum reaction velocity) of the enzyme, which were determined by the Lineweaver–Burk plot experiment. The Lineweaver–Burk plot is the double reciprocal plot of the enzyme reaction velocity ( V) versus the substrate ( p-NPP) concentration (1/ V versus 1/( p-NPP)).
(§2) Data are represented as means ± SD of at least three independent experiments performed in triplicated assays and determined by regression analysis. For statistical analysis of the data for single comparison, the significance between means was determined by the Student’s t test. Sigma Plot program version 11.0 was used for analysis of the kinetic data.

[2] = molecular target: T1, Protein tyrosine phosphatase 1B (human recombinant); experiment: PTP1B inhibition assay (p-NPP substrate); type: biochemical; conditions: read-out: IC50 PTP1B inhibitory activity
Description: PTP1B dephosphorylates IR and IRS in the insulin signaling pathway as a negative regulator. In the leptin signaling pathway, PTP1B presented the same manner of tyrosine Janus kinase 2. Thus, inhibition of PTP1B activity might improve the IR and IRS, leading to the enhancement of glucose uptake in adipocyte cells. […]
as §1
contain the PTP1B enzyme. […]
as §2

3T3-L1 adipocytes = experiment: Adipocyte-based measurement of 2-NBDG uptake; type: cell-based
Description: DM is a metabolic ailment that is categorized by glucose intolerance and deviations of lipid and protein metabolism processes. Previously, 2-NBDG was used as a potential agent to evaluate the action of compounds as insulin mimickers. In our experiment, we examined the activity of the pimarane diterpenes 1–7 on 2-NBDG uptake in the 3T3-L1 adipocytes model. […] Among them, compounds 1, 3, 5, 6, and 7 theoretically stimulated glucose uptake by 1.45–1.51-, 1.56–1.68-, 1.55–1.66-, 1.72–1.83-, and 1.67–1.75-fold of inductions, respectively (Figure 2).
Figure 2 The action of pimarane diterpenes (1–7) on 2-NBDG uptake. Compounds concentrations were 5 and 10 µM; Insulin (100 nM); Control (DMSO). The glucose uptake effect was expressed as the mean ± standard deviation (SD) of three replicates. Statistical significance was accessed by Duncan’s multiple range tests (* p < 0.01; ** p < 0.05). […]
Cell Culture and Induction of 3T3-L1 Adipocytes
3T3-L1 cells were purchased from American Type Culture Collection (ATCC, Manassas, VA, USA) and grown in DMEM with 10% FCS. To induce differentiation, 3T3-L1 pre-adipocytes were cultured until confluence was reached (0 day), and the culture medium was replaced with a fresh induction medium containing 5 µg/mL insulin, 0.5 mM 3-isobutyl-1-methylxanthine (IBMX), and 1 µM dexamethasone (DEX) […]
in DMEM with 10% FBS for 2 days. […]
Adipocyte-Based Measurement of 2-NBDG Uptake
3T3-L1 adipocytes grown in black 96-well plates were incubated with each sample for 24 h at 37 °C in a 5% CO2 atmosphere. Subsequently, 250 µM 2-NBDG (dissolved in PBS with 1% BSA) was added to the cells and incubated for a further 30 min. After incubation, cells were washed two times with PBS to remove excess fluorescence in the wells. Then, fluorescence retained by the cells was measured using a PerkinElmer […]

Compound	PTP1B inhibition (in words) (PTP1B)	Ki [1] [µM]	Inhibition Type [1]	IC50 [2] [µM]	2-NBDG uptake, fold of induction (3T3-L1 adipocytes; range over 5 and 10 µM)	also measured
C=C[C@]1(C)C=C2C(=O)C[C@H]3[C@@](C)(CCC[C@@]3(C)C(=O)O)[C@@H]2CC1 [7-oxo-ent-pimara-8(14),15-diene-19-oic acid]	significantly inhibited					
C=C[C@]1(C)C=C2C(CC1)[C@]1(C)CCC[C@@](C)(C(=O)O)C1C[C@@H]2O (stereo partly drawn) [7β-hydroxy-ent-pimara-8(14),15-diene-19-oic acid]	significantly inhibited					
C=CC1(C)CCC2C(O)(CCC3C(C)(CO)CCCC32C)C1 (stereo not drawn) [8α-hydroxy-ent-pimara-15-en-19-ol]	significantly inhibited					
C=CC1(C)CC(OC(=O)c2ccccc2)C2C(O)(C1=O)C(O)CC1C(C)(C)C(OC(C)=O)C(OC(C)=O)C(OC(=O)c3ccccc3)C12CO (stereo not drawn) [Compound 1, siphonol B]		52.4 ± 0.9	mixed-competitive inhibitor; also recorded: mixed-competitive inhibition	8.18 ± 0.41	1.45–1.51 fold	
C=CC1(C)CC(OC(=O)c2ccccc2)C2C(O)(C1=O)C(O)CC1C(C)(C)C(OC(C)=O)C(OC(C)=O)C(OC(=O)c3ccccc3)C12COC(C)=O (stereo not drawn) [Compound 2, siphonol D]				24.7 ± 1.12	1.24–1.33 fold	
C=C[C@@]1(C)C[C@@H](OC(=O)c2ccccc2)[C@H]2[C@](O)(C1=O)[C@H](OC(C)=O)C[C@H]1C(C)(C)[C@H](OC(C)=O)[C@H](O)[C@H](OC(=O)c3ccccc3)[C@@]12C [Compound 3, orthosiphol B]		75.6 ± 1.7	non-competitive inhibition	9.84 ± 0.33	1.56–1.68 fold	2-NBDG uptake, fold of induction (3T3-L1 adipocytes; 5 μM): 1.56 ± 0.09 fold
C=C[C@@]1(C)C[C@@H](OC(=O)c2ccccc2)[C@H]2[C@](O)(C1=O)[C@H](O)C[C@H]1C(C)(C)[C@H](OC(C)=O)[C@H](OC(C)=O)[C@H](OC(=O)c3ccccc3)[C@@]12C [Compound 4, orthosiphol F]				27.6 ± 2.99	1.28–1.35 fold	
C=C[C@@]1(C)C[C@@H](O)[C@H]2[C@](O)(C1=O)[C@H](O)C[C@H]1C(C)(C)[C@H](OC(C)=O)[C@H](OC(C)=O)[C@H](OC(=O)c3ccccc3)[C@@]12C [Compound 5, orthosiphol G]		23.9 ± 1.2	non-competitive inhibition	3.82 ± 0.2	1.55–1.66 fold	2-NBDG uptake, fold of induction (3T3-L1 adipocytes; 5 μM): 1.55 ± 0.02 fold
C=C[C@@]1(C)CC(=O)[C@H]2[C@](O)(C1=O)[C@H](O)C[C@H]1C(C)(C)[C@H](OC(C)=O)[C@H](OC(C)=O)[C@H](OC(=O)c3ccccc3)[C@@]12C [Compound 6, orthosiphol I]		1.3 ± 0.6	competitive inhibition	0.33 ± 0.07	1.72–1.83 fold	2-NBDG uptake, fold of induction (3T3-L1 adipocytes; 5 μM): 1.72 ± 0.11 fold
C=CC1(C)CC(=O)C2C(O)(C1=O)C(O)CC1C(C)(C)C(OC(=O)c3ccccc3)C(OC(C)=O)C(OC(=O)c3ccccc3)C12C (stereo not drawn) [Compound 7, orthosiphol N]		5.5 ± 0.1	uncompetitive inhibition	1.6 ± 0.17	1.67–1.75 fold	2-NBDG uptake, fold of induction (3T3-L1 adipocytes; 5 μM): 1.67 ± 0.08 fold
C[C@H]1[C@H](C)CC[C@]2(C(=O)O)CC[C@]3(C)C(=CC[C@@H]4[C@@]5(C)CC[C@H](O)C(C)(C)[C@@H]5CC[C@]43C)[C@H]12 [Ursolic acid, reference compound]			mixed-competitive inhibitor			
C=C1C[C@@]23CC[C@H]4[C@@](C)(CCC[C@@]4(C)C(=O)O)[C@@H]2CC[C@@H]1C3 [ent-kaur-16-en-19-oic-acid]	significantly inhibited					
C=C[C@]1(C)C=C2CCC3[C@@](C)(CCC[C@@]3(C)C(=O)O)C2CC1 (stereo partly drawn) [ent-pimara-8(14),15-diene-19-oic acid]	significantly inhibited					
C=CC1(C)C=C2CCC3C(C)(CO)CCCC3(C)C2CC1 (stereo not drawn) [ent-pimara-8(14),15-diene-19-ol]	significantly inhibited					
insulin						2-NBDG uptake, fold of induction (3T3-L1 adipocytes; positive control at 100 nM): 1.55 ± 0.07 fold
